According to patent US10005736B1, “Pyridine and pyrimidine derivatives” (Hoffmann-La Roche Inc., priority 2015, dated 2018):

How the values were obtained:
human EAAT3 = target: T1, human EAAT3 (Homo sapiens, UniProt P43005); assay: FLIPR Membrane Potential (FMP) assay, antagonist potency at human EAAT3; assay type: cell-based; conditions: HEK-293 cells stably expressing human EAAT3; L-glutamate as agonist at EC80; antagonists applied 15 min before; Kb by Cheng-Prusoff from IC50
T1 construct: expressed in transfected cells; host or cells: HEK-293
T1 sequence (P43005 1-524): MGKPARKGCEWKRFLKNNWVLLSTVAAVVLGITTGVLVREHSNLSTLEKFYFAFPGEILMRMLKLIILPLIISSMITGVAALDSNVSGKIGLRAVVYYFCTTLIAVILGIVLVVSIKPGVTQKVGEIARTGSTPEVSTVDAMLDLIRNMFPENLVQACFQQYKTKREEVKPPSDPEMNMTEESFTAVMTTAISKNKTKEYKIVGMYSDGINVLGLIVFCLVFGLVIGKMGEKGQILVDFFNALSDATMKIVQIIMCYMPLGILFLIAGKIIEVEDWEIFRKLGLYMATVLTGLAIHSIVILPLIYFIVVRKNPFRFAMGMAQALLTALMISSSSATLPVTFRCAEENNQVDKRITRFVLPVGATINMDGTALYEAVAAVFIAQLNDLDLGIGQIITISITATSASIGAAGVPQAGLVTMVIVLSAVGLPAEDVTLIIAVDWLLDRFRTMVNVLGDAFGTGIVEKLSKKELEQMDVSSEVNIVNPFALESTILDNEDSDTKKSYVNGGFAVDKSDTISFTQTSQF
Experimental: The FLIPR Membrane Potential (FMP) Assay
HEK-293 cells stably expressing human EAAT3 were seeded at 55 000 cells/well in growth medium (DMEM glutamate free (Invitrogen 11960-044), 1% Pen Strep (10 ml/1 GIBCO BRL N^o 15140-023), 10% FCS non dialysed heat inactivated, 5 mg/l puromycin) in poly-D-lysine treated 96-well black microtiter plates with clear-bottom. After 24 h, the growth medium was removed and […] of Krebs buffer (140 mM NaCl, 4.7 mM KCl, 2.5 mM CaCl2, 1.2 mM MgCl2, 11 mM HEPES, 10 mM D-glucose, pH=7.4) added. The cells were then loaded by adding 100 μl/well FMP assay dye (FLIPR Membrane Potential assay reagent, Molecular Devices). The 96-well plates were then incubated at 37° C. for 1 h. The depolarization of the cells will cause more dye to enter in the cells, where it will bind to intracellular proteins and lipids and cause an increase in the fluorescence signal. Antagonist potency at human EAAT3 was determined by using L-glutamate as agonist at a concentration which gives 80% of the maximum response. The antagonists were applied 15 min before the application of the agonist L-glutamate. The assays were performed at room temperature and measurements done by using a Fluorometric Imaging Plate Reader (FLIPR, Molecular Devices) and filter #2. Responses were measured as peak increase in fluorescence minus basal (i.e. fluorescence without addition of L-glutamate). Kb was determined using the Cheng-Prusoff equation Kb=IC50/[1+(A/EC50)], where IC50 is the concentration of the antagonist producing 50% inhibition, A is the concentration of the agonist against which the IC50 is being determined (at EC80) and EC50 is the concentration of the agonist producing 50% […].

Kb (human EAAT3) [nM]	melting point [°C]	SMILES
	192	Cc1ncncc1-c1cc(C(=O)NC(C)(C)C)cc(-c2ccc(Cl)cc2)c1 [Example 41, N-tert-Butyl-3-(4-chlorophenyl)-5-(4-methyl-pyrimidin-5-yl)-benzamide]
	108	CC(C)(C)NC(=O)c1cc(-c2ccc(Cl)cc2)cc(-c2cncnc2C(C)(C)C)c1 [Example 42, N-tert-Butyl-3-(4-tert-butyl-pyrimidin-5-yl)-5-(4-chlorophenyl)-benzamide]
	86	CC(C)c1ncncc1-c1cc(C(=O)NC(C)(C)CO)cc(-c2ccc(Cl)cc2)c1 [Example 43, 3-(4-Chlorophenyl)-N-(1-hydroxy-2-methylpropan-2-yl)-5-(4-propan-2-yl-pyrimidin-5-yl)-benzamide]
	63	CC(C)c1ncncc1-c1cc(C(=O)NC(C)(C)CO)cc(-c2ccc(F)cc2)c1 [Example 44, 3-(4-Fluorophenyl)-N-(1-hydroxy-2-methylpropan-2-yl)-5-(4-propan-2-yl-pyrimidin-5-yl)-benzamide]
	80	CC(C)c1ncncc1-c1cc(C(=O)NC(C)(C)CO)cc(-c2ccc(C(F)(F)F)cc2)c1 [Example 45, N-(1-Hydroxy-2-methylpropan-2-yl)-3-(4-propan-2-yl-pyrimidin-5-yl)-5-[4-(trifluoromethyl)-phenyl]-benzamide]
	99	CC(C)(C)NC(=O)c1cc(-c2ccc(F)c(F)c2)cc(-c2cncnc2C(C)(C)C)c1 [Example 48, N-tert-Butyl-3-(4-tert-butyl-primidin-5-yl)-5-(3,4-difluorophenyl)-benzamide]
	91	CC(C)(C)NC(=O)c1cc(-c2ccc(C(F)(F)F)cc2)cc(-c2cncnc2C(C)(C)C)c1 [Example 49, N-tert-Butyl-3-(4-tert-butyl-pyrimidin-5-yl)-5-[4-(trifluoromethyl)-phenyl]-benzamide]
	102	CC(C)(C)NC(=O)c1cc(-c2ccc(F)cc2)cc(-c2cncnc2C(C)(C)C)c1 [Example 51, N-tert-Butyl-3-(4-tert-butyl-pyrimidin-5-yl)-5-(4-fluorophenyl)-benziimide]
	63.5	CC(C)(C)NC(=O)c1cc(-c2ccc(Cl)cc2)cc(-c2cnccc2C(C)(C)C)c1 [Example 53, N-tert-Butyl-3-(4-tert-butylpyridin-3-yl)-5-(4-chlorophenyl)-benzamide]

The next lines start with the compound.

SMILES	Kb (human EAAT3) [nM]	melting point [°C]
CC(C)c1ncncc1-c1cc(C(=O)NC2(C)CCS(=O)(=O)C2)cc(-c2ccc(Cl)cc2)c1 (racemic) [Example 12, (RS)-3-(4-Chlorophenyl)-N-(3-methyl-1,1-dioxothiolan-3-yl)-5-(4-propan-2-ylpyrimidin-5-yl)-benzamide]	310	
Cc1ncccc1-c1cc(C(=O)NC2(C)CCS(=O)(=O)C2)cc(-c2ccc(Cl)cc2)c1 (racemic) [Example 13, (RS)-3-(4-Chlorophenyl)-N-(3-methyl-1,1-dioxothiolan-3-yl)-5-(2-methyl-pyridin-3-yl)-benzamide]	510	
CCC(C)(C)NC(=O)c1cc(-c2ccc(C)cc2)cc(-c2cccnc2)c1 [Example 1, N-(2-Methylbutan-2-yl)-3-(4-methylphenyl)-5-pyridin-3-ylbenzamide]	325	
CCC(C)(C)NC(=O)c1cc(-c2ccc(C)cc2)cc(-c2cncnc2)c1 [Example 2, N-(2-Methylbutan-2-yl)-3-(4-methylphenyl)-5-pyrimidin-5-ylbenzamide]	220	
CCC(C)(C)NC(=O)c1cc(-c2ccc(C)cc2)cc(-c2cncnc2C(C)C)c1 [Example 3, N-(2-Methylbutan-2-yl)-3-(4-methylphenyl)-5-(4-propan-2-ylpyrimidin-5-yl)-benzamide]	230	
CCC(C)(C)NC(=O)c1cc(-c2ccc(C)cc2)cc(-c2cnccc2C)c1 [Example 4, N-(2-Methylbutan-2-yl)-3-(4-methylphenyl)-5-(4-methylpyridin-3-yl)-benzamide]	290	
CCC(C)(C)NC(=O)c1cc(-c2ccc(C)cc2)cc(-c2cccnc2C)c1 [Example 5, N-(2-Methylbutan-2-yl)-3-(4-methylphenyl)-5-(2-methylpyridin-3-yl)-benzamide]	250	
CCC(C)(C)NC(=O)c1cc(-c2ccc(C)cc2)cc(-c2cnccc2C(C)C)c1 [Example 6, N-(2-Methylbutan-2-yl)-3-(4-methylphenyl)-5-(4-propan-2-ylpyridin-3-yl)-benzamide]	380	
Cc1ccncc1-c1cc(C(=O)NC(C)(C)C)cc(-c2ccc(Cl)cc2)c1 [Example 7, N-tert-Butyl-3-(4-chlorophenyl)-5-(4-methylpyridin-3-yl)-benzamide]	310	
CC(C)(C)NC(=O)c1cc(-c2ccc(Cl)cc2)cc(-c2cccnc2)c1 [Example 8, N-tert-Butyl-3-(4-chlorophenyl)-5-pyridin-3-ylbenzamide]	350	177
CC(C)c1ccncc1-c1cc(C(=O)NC(C)(C)C)cc(-c2ccc(Cl)cc2)c1 [Example 9, N-tert-Butyl-3-(4-chlorophenyl)-5-(4-propan-2-ylpyridin-3-yl)-benzamide]	540	148
CC(C)(C)NC(=O)c1cc(-c2ccc(Cl)cc2)cc(-c2cncnc2)c1 [Example 10, N-tert-Butyl-3-(4-chlorophenyl)-5-pyrimidin-5-ylbenzamide]	270	195
CC(C)c1ncncc1-c1cc(C(=O)NC(C)(C)C)cc(-c2ccc(Cl)cc2)c1 [Example 11, N-tert-Butyl-3-(4-chlorophenyl)-5-(4-propan-2-ylpyrimidin-5-yl)-benzamide]	230	182
CCC(C)(C)NC(=O)c1cc(-c2ccc(C)cc2)cc(-c2cccnc2C(C)C)c1 [Example 14, N-(2-Methylbutan-2-yl)-3-(4-methylphenyl)-5-(2-propan-2-ylpyridin-3-yl)-benzamide]	570	
CC(C)c1ncccc1-c1cc(C(=O)NC(C)(C)C)cc(-c2ccc(Cl)cc2)c1 [Example 15, N-tert-Butyl-3-(4-chlorophenyl)-5-(2-propan-2-ylpyridin-3-yl)-benzamide]	630	
CC(C)c1ncncc1-c1cc(C(=O)NC(C)(C)C2CC2)cc(-c2ccc(Cl)cc2)c1 [Example 16, 3-(4-Chlorophenyl)-N-(2-cyclopropylpropan-2-yl)-5-(4-propan-2-ylpyrimidin-5-yl)-benzamide]	420	
Cc1ncccc1-c1cc(C(=O)NC(C)(C)C2CC2)cc(-c2ccc(Cl)cc2)c1 [Example 17, 3-(4-Chlorophenyl)-N-(2-cyclopropylpropan-2-yl)-5-(2-methylpyridin-3-yl)-benzamide]	640	
CC(C)c1ncncc1-c1cc(C(=O)NC(C)(C)C(F)(F)F)cc(-c2ccc(Cl)cc2)c1 [Example 18, 3-(4-Chlorophenyl)-5-(4-propan-2-ylpyrimidin-5-yl)-N-(1,1,1-trifluoro-2-methylpropan-2-yl)-benzamide]	250	170
Cc1ncccc1-c1cc(C(=O)NC(C)(C)C(F)(F)F)cc(-c2ccc(Cl)cc2)c1 [Example 19, 3-(4-Chlorophenyl)-5-(2-methylpyridin-3-yl)-N-(1,1,1-trifluoro-2-methylpropan-2-yl)-benzamide]	340	
CC(C)c1ncncc1-c1cc(C(=O)NC(C)(C)C)cc(-c2ccc(F)cc2)c1 [Example 20, N-tert-Butyl-3-(4-fluorophenyl)-5-(4-propan-2-ylpyrimidin-5-yl)-benzamide]	81	79
Cc1ccncc1-c1cc(C(=O)NC(C)(C)C)cc(-c2ccc(F)cc2)c1 [Example 21, N-tert-Butyl-3-(4-fluorophenyl)-5-(4-methylpyridin-3-yl)-benzamide]	200	83
CC(C)c1ncncc1-c1cc(C(=O)NC(C)(C)C2CC2)cc(-c2ccc(F)cc2)c1 [Example 22, N-(2-Cyclopropylpropan-2-yl)-3-(4-fluorophenyl)-5-(4-propan-2-ylpyrimidin-5-yl)-benzamide]	57	74
